In US11926643B2, “Heterocyclic GLP-1 agonists” (Gasherbrum Bio, Inc., priority 2020, dated 2024):
Like-named read-outs stand apart in the source and are kept apart here.

Target: GLP-1 Receptor (Homo sapiens, UniProt P43220)
Test: GLP-1R agonist cAMP stimulation assay (Method 3, HEK293/GLP1R/CRE-LUC, HDB)
Format: cell-based
Conditions: HDB HEK293/CRE-Luc cell line
Experimental: The methodology for detection of cAMP using EFC requires incubation with 20 μL of cAMP XS+ED/CL lysis cocktail for one hour followed by incubation with 20 μL cAMP XS+EA reagent for three hours at room temperature. Microplates are read following signal generation with a PerkinElmer Envision instrument utilizing chemiluminescent signal detection. Compound activity is analyzed using CBIS data analysis suite (ChemInnovation, CA). Percentage activity is calculated using the following formula: % Activity=100%×(mean RLU of test sample−mean RLU of vehicle control)/(mean RLU of MAX control−mean RLU of vehicle control)) Method 3: Activation of GLP-1 receptor is known to stimulate cyclic AMP (cAMP) production in cells which indicates primary coupling to the Gαs subunit of the G protein heterotrimeric complex.
To optimize functional activity directed toward Gαs coupling, a HEK293/CRE-Luc cell line developed by HDB stably expressing the GLP-1 Receptor was used. 200× concentration of compound working solutions were prepared (Agilent Technologies Bravo) with 1/2 log serial dilution in 384-well Echo LDV plate (Labcyte, Cat #LP-0200). 50 nL/well 200× concentration of compound working solutions were moved to 384-well white low volume plate (Greiner, Cat #784075) using Labcyte ECHO550. 1×10^5 cells/mL HEK293/GLP1R/CRE-LUC(HD Biosciences) cell suspensions prepared with assay buffer [DPBS containing 0.5 mM IBMX(Sigma, Cat #15879) and 0.1% BSA(GENVIEW, Cat #FA016-100 g)], 10 μL cell suspensions were added to each well of previous generated assay plate which already contains 50 nL compound at 200× concentration using ThermoFisher Multidrop Combi (1000 cells/well). Seal the plate and incubate at 37° C. with 5% CO2 for 30 min.
After incubation the cAMP assay signal was generated using cAMP dynamic 2 Kit (Cisbio). 5 μL cAMP-d2 working solution was added to each well, followed with 5 μL Anti-cAMP antibody-cryptate working solution added to each well using ThermoFisher Multidrop Combi. Incubate at room temperature for 1 hour protected from light. […] (Method 3)

[1] = read-out: GLP1R cAMP Stimulation DR: EC50 (nM) [Species: Human, Assay Cell Line: HDB]
[2] = read-out: GLP1R cAMP Stimulation DR: pEC50 (M) [Species: Human, Assay Cell Line: HDB] (converted)

GLP-1 Receptor, sequence (P43220 24-463): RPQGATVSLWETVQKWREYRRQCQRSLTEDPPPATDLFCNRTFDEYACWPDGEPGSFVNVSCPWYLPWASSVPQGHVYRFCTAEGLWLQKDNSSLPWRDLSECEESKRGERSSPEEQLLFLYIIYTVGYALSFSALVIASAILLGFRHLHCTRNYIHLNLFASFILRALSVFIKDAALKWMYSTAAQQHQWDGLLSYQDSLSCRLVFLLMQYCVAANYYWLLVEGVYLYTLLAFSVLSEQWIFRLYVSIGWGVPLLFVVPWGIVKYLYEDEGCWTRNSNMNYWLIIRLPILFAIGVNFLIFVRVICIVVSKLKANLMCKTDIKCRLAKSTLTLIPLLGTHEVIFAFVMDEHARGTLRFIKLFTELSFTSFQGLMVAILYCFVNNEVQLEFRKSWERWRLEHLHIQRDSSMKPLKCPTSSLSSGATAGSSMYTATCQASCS

EC50 [1] [nM]	EC50 [2] [nM]	Compound
0.1 to 0.2	0.1 to 1	CNc1cc(-n2ccn(-c3c4c(nn3-c3cc(C)c(F)c(C)c3)CCN(C(=O)c3cc5cc(C6CCOCC6)ccc5n3[C@@]3(c5noc(=O)[nH]5)C[C@@H]3C)[C@H]4C)c2=O)ccc1P(C)(=O)C(C)(C)C (stereo partly drawn) [Compound 131a, 3-((1S,2S)-1-(2-((4S)-3-(3-(4-(tert-butyl(methyl)phosphoryl)-3-(methylamino)phenyl)-2-oxo-2,3-dihydro-1H-imidazol-1-yl)-2-(4-fluoro-3,5-dimethylphenyl)-4-methyl-4,5,6,7-tetrahydro-2H-pyrazolo[4,3-c]pyridine-5-carbonyl)-5-(tetrahydro-2H-pyran-4-yl)-1H-indol-1-yl)-2-methylcyclopropyl)-1,2,4-oxadiazol-5 (4H)-one]
< 0.1	≤ 0.1	Cc1cc(-n2nc3c(c2-n2ccn(-c4ccc(P(C)(C)=O)cc4)c2=O)[C@H](C)N(C(=O)c2cc4cc(C5CCOC(C)(C)C5)ccc4n2[C@@]2(c4noc(=O)[nH]4)C[C@@H]2C)CC3)cc(C)c1F (stereo partly drawn) [Compound 102a, 3-((1S,2S)-1-(2-((S)-3-(3-(4-(dimethylphosphoryl)phenyl)-2-oxo-2,3-dihydro-1H-imidazol-1-yl)-2-(4-fluoro-3,5-dimethylphenyl)-4-methyl-4,5,6,7-tetrahydro-2H-pyrazolo[4,3-c]pyridine-5-carbonyl)-5-(2,2-dimethyltetrahydro-2H-pyran-4-yl)-1H-indol-1-yl)-2-methylcyclopropyl)-1,2,4-oxadiazol-5 (4H)-one]
< 0.1	≤ 0.1	CCP(=O)(CC)c1ccc(-n2ccn(-c3c4c(nn3-c3cc(C)c(F)c(C)c3)CCN(C(=O)c3cc5cc(C6CCOCC6)ccc5n3[C@@]3(c5noc(=O)[nH]5)C[C@@H]3C)[C@H]4C)c2=O)cc1C(F)F [Compound 142a, 3-((1S,2S)-1-(2-((S)-3-(3-(4-(diethylphosphoryl)-3-(difluoromethyl)phenyl)-2-oxo-2,3-dihydro-1H-imidazol-1-yl)-2-(4-fluoro-3,5-dimethylphenyl)-4-methyl-4,5,6,7-tetrahydro-2H-pyrazolo[4,3-c]pyridine-5-carbonyl)-5-(tetrahydro-2H-pyran-4-yl)-1H-indol-1-yl)-2-methylcyclopropyl)-1,2,4-oxadiazol-5 (4H)-one]
0.1 to 0.2	0.1 to 1	CNc1cc(-n2ccn(-c3c4c(nn3-c3cc(C)c(F)c(C)c3)CCN(C(=O)c3cc5cc(C6CCOCC6)ccc5n3C3(c5noc(=O)[nH]5)CC3)[C@H]4C)c2=O)ccc1P(C)(=O)C(C)(C)C (stereo partly drawn) [Compound 149a, 3-(1-(2-((4S)-3-(3-(4-(tert-butyl(methyl)phosphoryl)-3-(methylamino)phenyl)-2-oxo-2,3-dihydro-1H-imidazol-1-yl)-2-(4-fluoro-3,5-dimethylphenyl)-4-methyl-4,5,6,7-tetrahydro-2H-pyrazolo[4,3-c]pyridine-5-carbonyl)-5-(tetrahydro-2H-pyran-4-yl)-1H-indol-1-yl)cyclopropyl)-1,2,4-oxadiazol-5 (4H)-one]
< 0.1	≤ 0.1	CCP(=O)(CC)c1ccc(-n2ccn(-c3c4c(nn3-c3cc(C)c(F)c(C)c3)CCN(C(=O)c3cc5cc([C@H]6CCOC(C)(C)C6)ccc5n3[C@@]3(c5noc(=O)[nH]5)C[C@@H]3C)[C@H]4C)c2=O)cc1 [Compound 130b, 3-((1S,2S)-1-(2-((S)-3-(3-(4-(diethylphosphoryl)phenyl)-2-oxo-2,3-dihydro-1H-imidazol-1-yl)-2-(4-fluoro-3,5-dimethylphenyl)-4-methyl-4,5,6,7-tetrahydro-2H-pyrazolo[4,3-c]pyridine-5-carbonyl)-5-((S)-2,2-dimethyltetrahydro-2H-pyran-4-yl)-1H-indol-1-yl)-2-methylcyclopropyl)-1,2,4-oxadiazol-5 (4H)-one]
